Reference: paper PMC12040169 (PLOS Biology, 2025)

test: in vitro; conditions: human, hela cells, % viability

Structure (SMILES)	viability at 28.5 h, 10 µM [%]
CN(Cc1ccccc1)Cc1cc(CC2(NCc3ccccc3)COC2)no1 [CBK289645]	88.9
O=C(N[C@@H](Cn1cc(Cl)c(=O)[nH]c1=O)C(=O)O)C1CC1 [CBK289649]	88.3
O=C(N[C@@H](Cn1ccc(=O)[nH]c1=O)C(=O)O)C1CCCCC1 [CBK289651]	85.8
N#Cc1ccc(CNC2(Cc3cc(-c4ccc(F)cc4)on3)COC2)cc1 [CBK289653]	87.3
Fc1ccc(-c2cc(CC3(NCc4ccc5c(c4)OCO5)COC3)no2)cc1 [CBK289654]	109
O=C(c1cc(CC2(NCc3ccc(F)cc3)COC2)no1)N1CCCCC1 [CBK289657]	92.4
O=C(N[C@@H](Cn1cc(Cl)c(=O)[nH]c1=O)C(=O)O)C1CCC1 [CBK289659]	89.2
Oc1cccc(-c2cc(CC3(NCc4cnc5ccccc5c4)COC3)no2)c1 [CBK289662]	107
CCc1cn(C[C@H](NC(=O)C2CCCC2)C(=O)O)c(=O)[nH]c1=O [CBK289664]	106
Cn1ccnc1CN1C(=O)CO[C@H]2CN(Cc3ccc4c(c3)OCO4)C[C@H]21 [CBK289665]	90
Cc1cn(C[C@H](NC(=O)c2cccc(F)c2)C(=O)O)c(=O)[nH]c1=O [CBK289667]	109
CCc1cn(C[C@H](NC(=O)c2ccco2)C(=O)O)c(=O)[nH]c1=O [CBK289670]	86
O=C1COC[C@H]([C@H](O)c2ccc(NC(=O)c3cnccn3)cc2)N1 [CBK289673]	104
CCNC(=O)N1C[C@@H]2OCC(=O)N(Cc3ccccc3)[C@@H]2C1 [CBK289679]	104
CCNC(=O)N1C[C@@H]2OCC(=O)N(Cc3cccnc3)[C@@H]2C1 [CBK289682]	109
CCN1C(=O)COC[C@@H]1[C@H](O)c1ccc(NC(=O)C2CCC2)cc1 [CBK289686]	85.7
CC(C)CN1C(=O)COC[C@@H]1[C@H](O)c1ccc(NC(=O)C2CCCCC2)cc1 [CBK289687]	106
COc1ccccc1C(=O)Nc1ccc([C@@H](O)[C@H]2COCC(=O)N2)cc1 [CBK289688]	97.3
CS(=O)(=O)c1ccc(CN2C[C@@H]3OCC(=O)N(Cc4ccc(F)cc4)[C@@H]3C2)cc1 [CBK289690]	119
NC(=O)CN1C(=O)CO[C@H]2CN(Cc3ccccc3F)C[C@H]21 [CBK289693]	114
CC1(C)[C@H](Cc2cc(COc3ccccc3)on2)C[C@@H]1NC1CCOCC1 [CBK289694]	96.5
CCN1C(=O)COC[C@@H]1[C@H](O)c1ccc(NC(=O)c2ccco2)cc1 [CBK289695]	85.3

Structure (SMILES)	viability at 28.5 h, 10 µM [%]
COc1ccc(-c2cc(CC3(NCc4ccccc4O)COC3)no2)cc1 [CBK289697]	91.3
O=C(c1ccccn1)N1C[C@@H]2OCC(=O)N(Cc3ccccc3)[C@@H]2C1 [CBK289698]	84.3
CC(=O)N1CCC(N[C@H]2C[C@@H](Cc3cc(CN4CCCCC4)on3)C2(C)C)CC1 [CBK289699]	89
COCc1cc(CC2(NCc3ccc(NC(C)=O)cc3)COC2)no1 [CBK289701]	110
CCCCc1cc(C[C@@H]2C[C@H](NS(C)(=O)=O)C2(C)C)no1 [CBK289702]	105
CC1(C)[C@H](Cc2cc(COc3ccccc3)on2)C[C@@H]1NS(C)(=O)=O [CBK289703]	89.5
COCCN1C(=O)CO[C@H]2CN(C(=O)Nc3ccc(F)cc3)C[C@H]21 [CBK289705]	85.3
Oc1ccc(Cn2ccnc2)c2cccnc12 [CBK291102]	89.3
Cc1cc(Cn2nnnc2-c2ccncc2)cc(C)c1O [CBK291103]	104
CC(=O)N1CCc2cc(C(=O)CN3CCOCC3)ccc21 [CBK291105]	89.2
O=C(CCc1cccnc1)N1CCCCC1c1nc2cc(F)ccc2[nH]1 (stereo not shown) [CBK291106]	112
O=C(CCc1ccc(=O)[nH]n1)N1CCCCC1c1nc2cc(F)ccc2[nH]1 (stereo not shown) [CBK291107]	105
CC(=O)Nc1cnn(-c2ccc(C(=O)N3CCCCC3c3nc4ccccc4[nH]3)cc2)c1 (stereo not shown) [CBK291109]	83.3
CC(=O)N1CCCC(c2nc(-c3ccncc3)ncc2-c2ccccc2)C1 (stereo not shown) [CBK291110]	82.2
Cc1ccc(Nc2ncc(C(=O)NCc3ccccn3)c3ccccc23)cc1Cl [CBK291113]	109
Cc1cc(NC(=O)c2c(F)cccc2F)nc2c1c(=O)oc1ccccc12 [CBK291115]	110
O=C(Cn1c(=O)cc(O)c2ccccc21)N1CCN(c2ccccn2)CC1 [CBK291117]	94.4
CCCn1c(=O)c(C(=O)NCCN(CC)CC)c(O)c2cc(Br)ccc21 [CBK291118]	85.7
Cc1cc(NC(=O)c2ccc3c(c2)OCO3)nc2c1c(=O)oc1ccccc12 [CBK291121]	117
Cc1cc(NC(=O)c2ccc3ccccc3c2)nc2c1c(=O)oc1ccccc12 [CBK291122]	117
Cc1cc(O)cc(=O)n1Cc1cccnc1 [CBK291123]	112
